These are literature values, as cited in US20250213572A1, “TYK2 INHIBITORS AND USES THEREOF” (Takeda Pharmaceutical Company Limited, priority 2022, published 2025).

In series [1] the test system is moderate-to-severe psoriasis. Conditions: 30 mg twice-daily; at four weeks; cited from earlier work.
In another series the test system is psoriasis. As to conditions: dose ranges used in the Phase 3 trials; cited from earlier work.
Series [2] concerns moderate-to-severe ulcerative colitis. Conditions: 6 mg once-daily; cited from earlier work.

Regarding `CCOc1cc([C@@H](CS(C)(=O)=O)N2C(=O)c3cccc(NC(C)=O)c3C2=O)ccc1OC` [Otezla®], in series [1], the “mean PASI reduction” value is 37%. Take “guselkumab: an anti-IL-23 monoclonal antibody”: the “increase of responses at 12 weeks compared to four weeks” value in the series on psoriasis is “three- to four-fold”. On to deucravacitinib [reference compound], for which, in series [2], the “primary endpoint of clinical remission at 12 weeks” value is listed as “did not achieve its primary endpoint of clinical remission at 12 weeks”. Besides, the “increase of responses at 12 weeks compared to four weeks” value in the series on psoriasis is listed as “three- to four-fold”.
